Measurements from PMC10046369, “Low-Affinity/High-Selectivity Dopamine Transport Inhibition Sufficient to Rescue Cognitive Functions in the Aging Rat” (Biomolecules, 2023).

Experiments:
Test in all cases: biochemical
Set-up in all cases: KINOMEscan competition binding panel, per cent of control
Conditions in all cases: read-out: %Ctrl @ 2800nM
[1] = biological target: AXL (Homo sapiens, UniProt P30530)
How it was run: (§1)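 Values are expressed as percent of control, calculated as ((test − positive control)/(negative control − positive control)) × 100, so lower numbers mean stronger hits. Binding was measured by KINOMEscan competition assay in a 450-kinase human panel including disease mutants, using the contractor's validated protocol.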

[2] = biological target: BLK (Homo sapiens, UniProt P51451)
How it was run: as §1

[3] = biological target: BMPR2 (Homo sapiens, UniProt Q13873)
How it was run: as §1

[4] = biological target: DDR1 (Homo sapiens, UniProt Q08345)
How it was run: as §1

[5] = biological target: T1, DMPK2 (Homo sapiens, UniProt Q6DT37)
T1 construct: gene CDC42BPG
How it was run: as §1

[6] = biological target: EGFR(L747-S752del, P753S) (Homo sapiens, UniProt P00533, DEL747-752/P753S)
How it was run: as §1

[7] = biological target: EGFR(T790M) (Homo sapiens, UniProt P00533, T790M)
How it was run: as §1

[8] = biological target: EPHB3 (Homo sapiens, UniProt P54753)
How it was run: as §1

[9] = biological target: FLT3(K663Q) (Homo sapiens, UniProt P36888, K663Q)
How it was run: as §1

[10] = biological target: GRK1 (Homo sapiens, UniProt Q15835)
How it was run: as §1

[11] = biological target: T2, IKK-epsilon (Homo sapiens, UniProt Q14164)
T2 construct: gene IKBKE
How it was run: as §1

[12] = biological target: LRRK2 (Homo sapiens, UniProt Q5S007)
How it was run: as §1

[13] = biological target: MAP3K2 (Homo sapiens, UniProt Q9Y2U5)
How it was run: as §1

[14] = biological target: MAPKAPK5 (Homo sapiens, UniProt Q8IW41)
How it was run: as §1

[15] = biological target: T3, MKK7 (Homo sapiens, UniProt O14733)
T3 construct: gene MAP2K7
How it was run: as §1

[16] = biological target: T4, MLK2 (Homo sapiens, UniProt Q02779)
T4 construct: gene MAP3K10
How it was run: as §1

[17] = biological target: NLK (Homo sapiens, UniProt Q9UBE8)
How it was run: as §1

[18] = biological target: PIK3CD (Homo sapiens, UniProt O00329)
How it was run: as §1

[19] = biological target: PKN1 (Homo sapiens, UniProt Q16512)
How it was run: as §1

[20] = biological target: PLK4 (Homo sapiens, UniProt O00444)
How it was run: as §1

[21] = biological target: RIOK3 (Homo sapiens, UniProt O14730)
How it was run: as §1

[22] = biological target: RIPK4 (Homo sapiens, UniProt P57078)
How it was run: as §1

[23] = biological target: T5, S6K1 (Homo sapiens, UniProt P23443)
T5 construct: gene RPS6KB1
How it was run: as §1

[24] = biological target: T6, SIK (Homo sapiens, UniProt P57059)
T6 construct: gene SIK1
How it was run: as §1

[25] = biological target: TNK2 (Homo sapiens, UniProt Q07912)
How it was run: as §1

[26] = biological target: T7, p38-gamma (Homo sapiens, UniProt P53778)
T7 construct: gene MAPK12
How it was run: as §1

T1 sequence (Q6DT37 whole entry): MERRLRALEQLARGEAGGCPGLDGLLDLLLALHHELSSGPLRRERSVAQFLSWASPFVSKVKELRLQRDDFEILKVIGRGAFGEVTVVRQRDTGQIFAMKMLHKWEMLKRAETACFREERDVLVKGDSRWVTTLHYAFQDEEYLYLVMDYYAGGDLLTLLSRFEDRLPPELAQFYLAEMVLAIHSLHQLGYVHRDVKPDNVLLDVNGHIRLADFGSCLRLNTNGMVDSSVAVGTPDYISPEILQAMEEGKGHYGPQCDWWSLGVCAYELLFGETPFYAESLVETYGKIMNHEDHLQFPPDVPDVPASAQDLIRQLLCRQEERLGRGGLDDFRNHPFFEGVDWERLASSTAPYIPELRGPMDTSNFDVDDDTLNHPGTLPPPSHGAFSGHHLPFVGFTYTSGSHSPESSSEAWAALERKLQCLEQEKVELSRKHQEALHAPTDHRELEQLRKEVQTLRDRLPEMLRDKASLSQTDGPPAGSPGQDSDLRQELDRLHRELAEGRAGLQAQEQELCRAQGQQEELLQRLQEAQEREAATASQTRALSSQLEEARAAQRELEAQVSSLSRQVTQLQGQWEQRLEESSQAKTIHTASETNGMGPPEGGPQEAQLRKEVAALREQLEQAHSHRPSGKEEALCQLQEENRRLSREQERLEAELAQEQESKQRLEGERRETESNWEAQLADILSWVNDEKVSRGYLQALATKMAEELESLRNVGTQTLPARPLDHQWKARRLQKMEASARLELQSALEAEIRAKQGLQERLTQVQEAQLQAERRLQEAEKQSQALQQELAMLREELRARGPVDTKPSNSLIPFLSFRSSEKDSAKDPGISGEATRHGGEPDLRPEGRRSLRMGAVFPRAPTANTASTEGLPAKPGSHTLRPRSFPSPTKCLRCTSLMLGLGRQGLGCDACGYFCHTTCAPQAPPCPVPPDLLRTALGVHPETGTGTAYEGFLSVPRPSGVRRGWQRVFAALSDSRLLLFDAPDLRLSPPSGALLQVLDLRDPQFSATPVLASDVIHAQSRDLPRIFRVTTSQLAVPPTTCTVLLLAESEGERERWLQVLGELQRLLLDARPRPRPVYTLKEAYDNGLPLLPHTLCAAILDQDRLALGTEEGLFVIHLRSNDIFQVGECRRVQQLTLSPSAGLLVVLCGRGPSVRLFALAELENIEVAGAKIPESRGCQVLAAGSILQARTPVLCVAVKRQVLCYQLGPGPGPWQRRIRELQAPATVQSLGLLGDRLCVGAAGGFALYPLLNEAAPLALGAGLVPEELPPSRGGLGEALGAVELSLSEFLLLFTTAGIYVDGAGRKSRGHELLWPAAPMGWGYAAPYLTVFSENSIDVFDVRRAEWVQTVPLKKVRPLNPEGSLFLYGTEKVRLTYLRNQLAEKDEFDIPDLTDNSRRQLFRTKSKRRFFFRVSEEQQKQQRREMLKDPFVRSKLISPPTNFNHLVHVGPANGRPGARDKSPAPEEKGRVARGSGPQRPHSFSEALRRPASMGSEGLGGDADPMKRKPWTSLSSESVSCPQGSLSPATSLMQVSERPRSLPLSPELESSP
Sequence of PKN1 (Q16512 whole entry): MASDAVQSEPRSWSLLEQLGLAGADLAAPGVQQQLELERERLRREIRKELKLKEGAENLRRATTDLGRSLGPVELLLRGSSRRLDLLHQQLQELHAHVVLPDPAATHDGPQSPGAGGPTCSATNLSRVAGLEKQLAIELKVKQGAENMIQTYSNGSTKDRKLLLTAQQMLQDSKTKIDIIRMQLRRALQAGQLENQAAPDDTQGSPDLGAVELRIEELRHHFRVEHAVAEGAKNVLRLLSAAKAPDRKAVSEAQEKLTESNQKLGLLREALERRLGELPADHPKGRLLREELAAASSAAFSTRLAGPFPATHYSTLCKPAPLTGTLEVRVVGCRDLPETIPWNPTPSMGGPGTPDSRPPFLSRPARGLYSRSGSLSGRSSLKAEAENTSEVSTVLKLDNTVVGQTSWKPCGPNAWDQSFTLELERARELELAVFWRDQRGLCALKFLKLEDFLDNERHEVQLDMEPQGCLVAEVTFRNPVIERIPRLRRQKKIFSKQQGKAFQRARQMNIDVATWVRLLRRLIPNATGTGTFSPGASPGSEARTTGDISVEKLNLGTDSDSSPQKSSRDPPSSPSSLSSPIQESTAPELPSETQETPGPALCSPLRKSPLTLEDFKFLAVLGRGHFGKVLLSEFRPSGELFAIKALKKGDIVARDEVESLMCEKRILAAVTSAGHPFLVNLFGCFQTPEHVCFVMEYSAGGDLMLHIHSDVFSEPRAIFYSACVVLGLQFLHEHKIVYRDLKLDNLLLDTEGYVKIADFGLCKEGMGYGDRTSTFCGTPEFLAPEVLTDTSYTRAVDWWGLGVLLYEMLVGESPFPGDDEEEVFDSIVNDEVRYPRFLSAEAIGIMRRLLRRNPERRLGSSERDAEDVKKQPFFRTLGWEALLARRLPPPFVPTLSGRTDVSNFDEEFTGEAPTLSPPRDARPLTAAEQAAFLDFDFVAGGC
Sequence of TNK2 (Q07912 whole entry): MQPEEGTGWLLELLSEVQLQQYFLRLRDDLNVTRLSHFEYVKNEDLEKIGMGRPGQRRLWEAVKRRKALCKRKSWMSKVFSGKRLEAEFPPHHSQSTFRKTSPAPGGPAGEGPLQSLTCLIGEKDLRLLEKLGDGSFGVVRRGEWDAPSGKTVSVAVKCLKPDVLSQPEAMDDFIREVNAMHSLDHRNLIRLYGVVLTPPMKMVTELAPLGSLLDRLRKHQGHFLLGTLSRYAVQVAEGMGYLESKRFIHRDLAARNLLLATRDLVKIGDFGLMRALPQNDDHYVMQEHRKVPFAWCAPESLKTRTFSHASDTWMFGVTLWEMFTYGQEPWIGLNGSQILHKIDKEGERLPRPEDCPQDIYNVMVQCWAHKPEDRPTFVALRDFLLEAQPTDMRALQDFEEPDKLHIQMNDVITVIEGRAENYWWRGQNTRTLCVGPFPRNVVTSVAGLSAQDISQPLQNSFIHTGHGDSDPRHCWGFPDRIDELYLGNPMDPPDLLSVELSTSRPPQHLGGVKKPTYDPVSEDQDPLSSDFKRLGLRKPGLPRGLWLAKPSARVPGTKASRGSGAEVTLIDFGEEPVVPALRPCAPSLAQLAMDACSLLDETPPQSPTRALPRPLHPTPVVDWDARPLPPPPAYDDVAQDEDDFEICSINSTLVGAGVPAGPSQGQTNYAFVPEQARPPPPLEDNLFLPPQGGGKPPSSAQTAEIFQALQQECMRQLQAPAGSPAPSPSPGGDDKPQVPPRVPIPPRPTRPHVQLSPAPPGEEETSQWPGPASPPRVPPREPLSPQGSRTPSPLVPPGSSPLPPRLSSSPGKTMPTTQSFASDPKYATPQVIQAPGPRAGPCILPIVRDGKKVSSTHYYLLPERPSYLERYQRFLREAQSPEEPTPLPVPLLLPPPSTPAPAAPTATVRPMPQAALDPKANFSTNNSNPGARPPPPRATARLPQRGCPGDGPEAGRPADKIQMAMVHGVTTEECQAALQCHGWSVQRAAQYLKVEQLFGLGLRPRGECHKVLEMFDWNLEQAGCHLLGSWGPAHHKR
Sequence of GRK1 (Q15835 whole entry): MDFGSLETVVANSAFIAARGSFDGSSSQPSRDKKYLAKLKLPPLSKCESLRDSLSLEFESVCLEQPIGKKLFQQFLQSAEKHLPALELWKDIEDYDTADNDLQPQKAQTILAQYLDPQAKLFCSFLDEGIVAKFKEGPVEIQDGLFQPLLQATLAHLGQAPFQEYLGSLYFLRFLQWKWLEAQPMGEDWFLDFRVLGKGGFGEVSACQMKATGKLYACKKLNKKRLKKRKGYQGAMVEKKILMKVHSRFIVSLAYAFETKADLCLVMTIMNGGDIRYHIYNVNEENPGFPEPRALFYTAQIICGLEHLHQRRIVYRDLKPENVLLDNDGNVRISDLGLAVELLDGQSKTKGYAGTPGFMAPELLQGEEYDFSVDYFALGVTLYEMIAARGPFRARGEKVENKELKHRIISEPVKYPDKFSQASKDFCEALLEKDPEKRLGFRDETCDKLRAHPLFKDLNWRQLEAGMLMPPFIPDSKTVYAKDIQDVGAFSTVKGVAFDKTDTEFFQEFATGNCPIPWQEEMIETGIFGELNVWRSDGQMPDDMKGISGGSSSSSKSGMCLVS
Sequence of MAPKAPK5 (Q8IW41 whole entry): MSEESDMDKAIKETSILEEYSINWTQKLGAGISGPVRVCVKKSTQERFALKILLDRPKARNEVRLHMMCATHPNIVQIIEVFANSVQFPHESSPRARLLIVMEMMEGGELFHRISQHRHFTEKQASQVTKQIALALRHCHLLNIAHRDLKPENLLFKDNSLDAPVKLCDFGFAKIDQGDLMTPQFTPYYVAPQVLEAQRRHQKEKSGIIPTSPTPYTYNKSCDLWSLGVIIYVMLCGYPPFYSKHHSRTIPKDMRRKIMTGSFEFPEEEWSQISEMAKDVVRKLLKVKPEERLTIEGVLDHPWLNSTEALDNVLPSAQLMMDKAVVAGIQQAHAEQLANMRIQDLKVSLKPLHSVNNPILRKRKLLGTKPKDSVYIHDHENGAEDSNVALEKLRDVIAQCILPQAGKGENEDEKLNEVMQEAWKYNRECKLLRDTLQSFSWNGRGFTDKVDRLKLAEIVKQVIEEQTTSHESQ
T5 sequence (P23443 whole entry): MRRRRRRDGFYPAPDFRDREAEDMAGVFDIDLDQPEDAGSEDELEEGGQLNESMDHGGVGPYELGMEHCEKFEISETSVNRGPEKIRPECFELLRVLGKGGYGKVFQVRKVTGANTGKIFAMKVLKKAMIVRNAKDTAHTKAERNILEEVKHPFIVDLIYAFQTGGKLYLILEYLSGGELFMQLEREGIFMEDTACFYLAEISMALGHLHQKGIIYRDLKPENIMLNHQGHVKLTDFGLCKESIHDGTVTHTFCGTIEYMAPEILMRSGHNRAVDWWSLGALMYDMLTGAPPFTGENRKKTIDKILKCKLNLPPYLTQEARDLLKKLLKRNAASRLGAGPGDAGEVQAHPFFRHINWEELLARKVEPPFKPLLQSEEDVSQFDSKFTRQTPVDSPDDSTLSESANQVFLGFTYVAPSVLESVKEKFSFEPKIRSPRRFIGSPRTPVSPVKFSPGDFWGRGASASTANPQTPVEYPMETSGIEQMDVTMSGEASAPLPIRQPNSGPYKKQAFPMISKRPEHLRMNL

Question: Which remaining binding at 2.8 µM [1] does the source give for [O-][S@@+](Cc1cncs1)C(c1ccccc1)c1ccccc1 [S-CE-123, (S)-5-((Benzhydrylsulfinyl)Methyl)Thiazole] here?
Answer: 96%

Question: And the remaining binding at 2.8 µM [2]?
Answer: 90%

Question: And the remaining binding at 2.8 µM [3]?
Answer: 100%

Question: And the remaining binding at 2.8 µM [4]?
Answer: 100%

Question: And the remaining binding at 2.8 µM [5]?
Answer: 88%

Question: What about the remaining binding at 2.8 µM [6] of the same compound?
Answer: 96%

Question: What about the remaining binding at 2.8 µM [7] of the same compound?
Answer: 98%

Question: And the remaining binding at 2.8 µM [8]?
Answer: 100%

Question: What about the remaining binding at 2.8 µM [9] of the same compound?
Answer: 96%

Question: And the remaining binding at 2.8 µM [10]?
Answer: 100%

Question: What about the remaining binding at 2.8 µM [11] of the same compound?
Answer: 98%

Question: And the remaining binding at 2.8 µM [12]?
Answer: 100%

Question: What about the remaining binding at 2.8 µM [13] of the same compound?
Answer: 100%

Question: And the remaining binding at 2.8 µM [14]?
Answer: 100%

Question: What about the remaining binding at 2.8 µM [15] of the same compound?
Answer: 100%

Question: And the remaining binding at 2.8 µM [16]?
Answer: 96%

Question: What about the remaining binding at 2.8 µM [17] of the same compound?
Answer: 97%

Question: And the remaining binding at 2.8 µM [18]?
Answer: 86%

Question: What about the remaining binding at 2.8 µM [19] of the same compound?
Answer: 100%

Question: What about the remaining binding at 2.8 µM [20] of the same compound?
Answer: 89%

Question: And the remaining binding at 2.8 µM [21]?
Answer: 97%

Question: And the remaining binding at 2.8 µM [22]?
Answer: 97%

Question: And the remaining binding at 2.8 µM [23]?
Answer: 90%

Question: What about the remaining binding at 2.8 µM [24] of the same compound?
Answer: 100%

Question: What about the remaining binding at 2.8 µM [25] of the same compound?
Answer: 100%

Question: And the remaining binding at 2.8 µM [26]?
Answer: 100%
